We go through 19 compounds from patent US4619941A, “N-[(1H-imidazol-1-yl)alkyl]-1H-indolecarboxamides useful as thromboxane synthetase inhibitors and antihypertensive agents” (American Cyanamid Company, priority 1984, dated 1986).

Each structure is given as a SMILES string.

For assay [1], the target named is T1, thromboxane synthetase (Rattus norvegicus, UniProt P49430).
T1 construct: The platelets were isolated by centrifuging the PRP for 10 minutes at 1060 xg; endogenous in cells; host or cells: washed platelets from arterial blood of Okamoto-Aoki spontaneously hypertensive rats (Taconic Farms), 19 to 24 weeks old
T1 sequence (P49430 1-533): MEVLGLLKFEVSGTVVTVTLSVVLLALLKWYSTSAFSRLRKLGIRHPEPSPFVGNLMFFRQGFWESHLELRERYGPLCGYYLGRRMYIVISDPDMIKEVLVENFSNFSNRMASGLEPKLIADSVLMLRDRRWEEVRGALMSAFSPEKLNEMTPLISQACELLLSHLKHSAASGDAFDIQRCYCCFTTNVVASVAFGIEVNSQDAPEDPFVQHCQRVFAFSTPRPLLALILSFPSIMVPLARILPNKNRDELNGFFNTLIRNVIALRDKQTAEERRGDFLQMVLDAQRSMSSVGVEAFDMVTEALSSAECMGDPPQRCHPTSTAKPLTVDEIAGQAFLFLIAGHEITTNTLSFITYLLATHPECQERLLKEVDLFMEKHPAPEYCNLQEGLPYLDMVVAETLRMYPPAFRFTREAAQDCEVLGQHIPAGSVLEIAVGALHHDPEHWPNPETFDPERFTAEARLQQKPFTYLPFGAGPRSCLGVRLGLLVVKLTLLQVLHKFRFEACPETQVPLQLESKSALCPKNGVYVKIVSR
The assay is described as follows: Inhibition of thromboxane (TXA2) formation, determined as TXB2 formed by washed SHR platelets (direct RIA). In kind it is cell-based, Okamoto-Aoki spontaneously hypertensive rats (SHR). To be noted: Dose 10^-4 M, 10 minutes at 37° C., pH 7.4. The protocol: The inhibition of thromboxane (TXA2) formation was studied by determining the concentration of thromboxane B2 (TXB2), the stable hydrolysis product of TXA2.
The blood was diluted with 3 ml cold saline and centrifuged at room temperature for 15 minutes at 460 xg. The platelet rich plasma (PRP) was separated. The platelets were isolated by centrifuging the PRP for 10 minutes at 1060 xg and were washed in 4 ml cold oxygenated Krebs phosphate buffer, pH 7.4. the chilled platelets recovered from centrifuging at 800 xg for 10 minutes were resuspended in oxygenated Krebs phosphate buffer and diluted to contain 4.5-6.0×10^4 platelets/μl. […] The samples were incubated for 10 minutes at 37° C. in a metabolic shaker. The reaction was terminated by immersing the tubes in an ice bath and adding 50 μl of 0.5 M citric acid. The samples were centrifuged for 10 minutes in a refrigerated centrifuge and the supernatants thus obtained were decanted and stored at -20° C. The TXB2 content for each sample was determined by a direct radioimmunoassay (RIA) utilizing a TXB2 specific RIA kit purchased from New England Nuclear, Boston, MA and expressed as pg TXB2 formed minute^-1 sample^-1, from which the percent inhibition of TXB2 formation was calculated.

The test system of assay [2] is spontaneously hypertensive rats of the Okamoto strain. Kind of assay: Hypotensive activity in spontaneously hypertensive rats, mean arterial blood pressure (method of Chan and Poorvin). The assay is classed as in vivo. To be noted: by gavage, 100 mg/kg or less, second identical dose at 24 hours; measured 28 hours after initial dose; SHR average MABP 160±1.5 mm Hg. As for the experimental part:
Male, 16 week old, spontaneously hypertensive rats of the Okamoto strain, from Taconic Farms, Germantown, N.Y., having an average means arterial blood pressure of 160±1.5 mm of mercury are used in the test. One to three rats are used per test compound. A rat is dosed by gavage with a test compound, suspended in 2% pre-boiled starch at a concentration of 50 mg/ml, at a dose of 100 mg/kg of body weight or less with 0.9% sodium chloride loading at a dose of 25 ml/kg of body weight. A second identical dose of the test compound, without sodium chloride loading is given 24 hours later. At 28 hours after the initial dose the mean arterial blood pressure is measured by the method of Chan and Poorvin vide supra. The procedure is repeated in a second and third rat when necessary.

Regarding `Cc1nccn1CCCNC(=O)c1cc2ccccc2n1C` [1-Methyl-N-[3-(2-methyl-1H-imidazol-1-yl)-propyl]-1H-indole-2-carboxamide], the inhibition at 100 µM in assay [1] was determined as 56%.

`Cc1cn(CCCNC(=O)c2cc3ccccc3n2C)cn1` [1-Methyl-N-[3-(4-methyl-1H-imidazol-1-yl)propyl]-1H-indole-2-carboxamide] came in with an inhibition at 100 µM in assay [1] of 85%. In addition, the “MABP (mean arterial blood pressure)” value in assay [2] turned out to be 136 mm Hg.

`CC(CNC(=O)c1cc2cc(Cl)ccc2[nH]1)Cn1ccnc1` (stereo not drawn) [5-Chloro-N-[3-(1H-imidazol-1-yl)-2-methylpropyl]-1Hindole-2carboxamide] yielded an inhibition at 100 µM in assay [1] of 100%. Also, the “MABP (mean arterial blood pressure)” value in assay [2] is 123 mm Hg.

In assay [1], `CC(CCNC(=O)c1cc2cc(Cl)ccc2[nH]1)n1ccnc1` (stereo not drawn) [5-Chloro-N-[3-(1H-imidazol-1-yl)-butyl]-1H-indole-2-carboxamide] registered an inhibition at 100 µM of 98%. Besides, the “MABP (mean arterial blood pressure)” value in assay [2] amounted to 119 mm Hg.

In turn, `O=C(NCCCn1ccnc1)c1cc2cc(Cl)ccc2[nH]1` [5-Chloro-N-[3-(1H-imidazol-1-yl)propyl]-1H-indole-2-carboxamide] registered an inhibition at 100 µM in assay [1] of 95%.

Turning to `Cc1cn(CCCNC(=O)c2cc3cc(Cl)ccc3[nH]2)cn1` [5-Chloro-N-[3-(4-methyl-1H-imidazol-1-yl)propyl]-1H-indole-2-carboxamide], in assay [1], the inhibition at 100 µM turned out to be 100%. In assay [2], the “MABP (mean arterial blood pressure)” value was 135 mm Hg.

Consider `O=C(NCCCCn1ccnc1)c1cc2cc(Cl)ccc2[nH]1` [5-Chloro-N-[4-(1H-imidazol-1-yl)butyl]-1H-indole-2-carboxamide], for which the “MABP (mean arterial blood pressure)” value in assay [2] was 118 mm Hg.

Take `O=C(NCCCCCn1ccnc1)c1cc2cc(Cl)ccc2[nH]1` [5-Chloro-N-[5-(1H-imidazol-1-yl)pentyl]-1H-indole-2-carboxamide]: in assay [2], the “MABP (mean arterial blood pressure)” value came out at 124 mm Hg.

In assay [1], `O=C(NCCCCCCCCn1ccnc1)c1cc2cc(Cl)ccc2[nH]1` [5-Chloro-N-[8-(1H-imidazol-1-yl)octyl]-1H-indole-2-carboxamide] had an inhibition at 100 µM of 66%.

In turn, `COc1ccc2[nH]c(C(=O)NCCCn3ccnc3C)cc2c1` [5-Methoxy-N-[3-(2-methyl-1H-imidazol-1-yl)propyl]-1H-indole-2-carboxamide] showed an inhibition at 100 µM in assay [1] of 49%.

In assay [1], `COc1ccc2[nH]c(C(=O)NCCCCn3ccnc3)cc2c1` [5-Methoxy-N-[4-(1H-imidazol-1-yl)butyl]-1H-indole-2-carboxamide] yielded an inhibition at 100 µM of 100%. Besides, the “MABP (mean arterial blood pressure)” value in assay [2] was 130 mm Hg.

On to `Cn1c(C(=O)NCCCn2ccnc2)cc2ccccc21` [N-[3-(1H-Imidazol-1-yl)propyl]-1-methyl-1H-indole-2-carboxamide], for which the inhibition at 100 µM in assay [1] worked out at 88%.

Regarding `O=C(NCCCn1ccnc1)c1cc2ccccc2[nH]1` [N-[3-(1H-Imidazol-1-yl)propyl]-1H-indole-2-carboxamide], the inhibition at 100 µM in assay [1] came out at 94%. Also, in assay [2], the “MABP (mean arterial blood pressure)” value was 114 mm Hg.

Regarding `O=C(NCCCn1ccnc1)c1ccc2[nH]ccc2c1` [N-[3-(1H-Imidazol-1-yl)propyl]-1H-indole-5-carboxamide], in assay [2], the “MABP (mean arterial blood pressure)” value is listed as 133 mm Hg.

With `COc1ccc2[nH]c(C(=O)NCCCn3ccnc3)cc2c1` [N-[3-(1H-Imidazol-1-yl)propyl]-5-methoxy-1H-indole-2-carboxamide], in assay [1], the inhibition at 100 µM came to 96%.

With `Cc1nccn1CCCNC(=O)c1cc2ccccc2[nH]1` [N-[3-(2-Methyl-1H-imidazol-1-yl)propyl]-1H-indole2-carboxamide], the inhibition at 100 µM in assay [1] came to 44%.

`O=C(NCCCn1ccnc1-c1ccccc1)c1cc2ccccc2[nH]1` [N-[3-(2-Phenyl-1H-imidazol-1-yl)propyl]-1H-indole-2-carboxamide] came in with an inhibition at 100 µM in assay [1] of 91%.

Consider `Cc1cn(CCCNC(=O)c2cc3ccccc3[nH]2)cn1` [N-[3-(4-Methyl-1H-imidazol-1-yl)propyl]-1H-indole-2-carboxamide], for which the inhibition at 100 µM in assay [1] was 100%. Besides, in assay [2], the “MABP (mean arterial blood pressure)” value worked out at 131 mm Hg.

Regarding `O=C(NCCCCn1ccnc1)c1cc2ccccc2[nH]1` [N-[4-(1H-Imidazol-1-yl)butyl]-1H-indole-2-carboxamide], in assay [1], testing at 100 µM gave an inhibition of 100%. Also, in assay [2], the “MABP (mean arterial blood pressure)” value was 137 mm Hg.
